US8410173B2, “Inhibition of JAK2 as a treatment of pulmonary arterial hypertension” (YM Biosciences Australia Pty Ltd, priority 2006, dated 2013)
Entries after “also recorded” stand apart in the source; their conditions may differ. Marks after values point to notes of the source that are not given here.

Assays:
[1] = tested on: rat monocrotaline model of PAH; conditions: cited from earlier work; for efficacy in the rat monocrotaline model of PAH: sildenafil oral, alone or in combination with beraprost
[2] = tested on: plexiform lesions in lungs of monocrotaline treated rats; assay: histological studies (H&E) of lungs, rat monocrotaline model; format: in vivo; conditions: AG490 1 mg/kg tid, H&E stains of formalin fixed lungs
Description: A. Normal lung; B. Lung from monocrotaline treated animal. C. Lung from rat given monocrotaline and AG490 1 mg/kg tid. The arrows point to pulmonary arterioles.
Histological studies of the lungs from group 2 and group 5 were performed to determine the effect of selective JAK2 inhibition on the pulmonary vascular lesions associated with PAH.

[3] = tested on: rat monocrotaline model of pulmonary arterial hypertension; assay: rat monocrotaline model of pulmonary arterial hypertension, RV pressures; format: in vivo; conditions: for RVEDP Mean / RVS Mean Difference (I − J) vs group 1 (saline control) / RVS Mean Difference (I − J) vs group 2 (monocrotaline, vehicle): day 21
Description: To test the efficacy of JAK2 inhibition as a treatment for PAH, the rat monocrotaline model of pulmonary arterial hypertension was used. Animals with pulmonary arterial hypertension induced by monocrotaline were treated for three weeks with the selective JAK2 inhibitor, AG490, or vehicle. AG490 is a tyrphostin based tyrosine kinase inhibitor selective for JAK2.

[4] = group 3, AG490 1 mg/kg/day SID IP
[5] = group 4, AG490 3 mg/kg/day SID IP
[6] = group 5, AG490 1 mg/kg/dose TID IP

SMILES: CC#CCC(C)[C@H](O)/C=C/[C@@H]1[C@H]2C/C(=C/CCCC(=O)O)C[C@H]2C[C@H]1O (stereo partly shown) [iloprost]
- efficacy in the rat monocrotaline model of PAH [1]: showed efficacy

SMILES: CCCc1nn(C)c2c(=O)[nH]c(-c3cc(S(=O)(=O)N4CCN(C)CC4)ccc3OCC)nc12 [sildenafil]
- efficacy in the rat monocrotaline model of PAH [1]: showed efficacy

SMILES: COc1ccccc1Oc1c(NS(=O)(=O)c2ccc(C(C)(C)C)cc2)nc(-c2ncccn2)nc1OCCO [bosentan]
- pulmonary artery thickening ([1]; rat monocrotaline model): decrease pulmonary artery thickening
- pulmonary hypertension ([1]; rat monocrotaline model): reduce pulmonary hypertension

SMILES: Cc1ccc(NC(=O)c2ccc(CN3CCN(C)CC3)cc2)cc1Nc1nccc(-c2cccnc2)n1 [imantinib]
- RV systolic pressure ([1]; rat monocrotaline model): decreased
- survival ([1]; rat monocrotaline model): improved survival

SMILES: N#C/C(=C\c1ccc(O)c(O)c1)C(=O)NCc1ccccc1 [AG490]
- plexiform lesions associated with pulmonary arterial hypertension [2]: prevented the formation of plexiform lesions; also recorded: decreased
- reduction of RV systolic pressure vs vehicle treated group ([3]; AG490 1 mg/kg tid, day 21, p=0.023): 24%
- RV systolic pressure ([3]; AG490 1 mg/kg tid, monocrotaline treated rats, day 21 (group 5), vehicle 38.44±3.1): 29.23±4.5 mm Hg
- RV systolic pressure improvement, in words ([3]; group 3, AG490 1 mg/kg/day): No improvement
- RVEDP Mean Difference (I − J) vs group 1 (saline control) [3, 4]: 5.5436
- RVEDP Mean Difference (I − J) vs group 2 (monocrotaline, vehicle) [3, 4]: −.0585
- RVEDP Mean [3, 4]: 4.042 mm Hg
- RVS Mean Difference (I − J) vs group 1 (saline control) [3, 4]: 11.468*
- RVS Mean Difference (I − J) vs group 2 (monocrotaline, vehicle) [3, 4]: −2.487
- RVEDP Mean Difference (I − J) vs group 1 (saline control) [3, 5]: .6433
- RVEDP Mean Difference (I − J) vs group 2 (monocrotaline, vehicle) [3, 5]: −4.9588
- RVEDP Mean [3, 5]: −.858 mm Hg
- RVS Mean Difference (I − J) vs group 1 (saline control) [3, 5]: 6.730
- RVS Mean Difference (I − J) vs group 2 (monocrotaline, vehicle) [3, 5]: −7.225
- RV systolic pressure compared to group 2 (vehicle only), in words ([3]; group 5, AG490 1 mg/kg tid, p=0.023, 1 mg/kg): significantly reduced; also recorded: significant reduction; also recorded: significantly lower
- RV End diastolic pressure compared to group 2 (vehicle), in words ([3]; group 5, AG490 1 mg/kg tid, p=0.05): significantly lower
- RVEDP Mean Difference (I − J) vs group 1 (saline control) [3, 6]: −.0193
- RVEDP Mean Difference (I − J) vs group 2 (monocrotaline, vehicle) [3, 6]: −5.6214*
- RVEDP Mean [3, 6]: −1.521 mm Hg
- RVS Mean Difference (I − J) vs group 1 (saline control) [3, 6]: 4.741
- RVS Mean Difference (I − J) vs group 2 (monocrotaline, vehicle) [3, 6]: −9.214*

SMILES: O=S(=O)(c1cccc2cnccc12)N1CCCNCC1 [fasudil]
- progression of PAH ([1]; rat monocrotaline model): prevented the progression of PAH
- pulmonary arterial hypertension, pulmonary vascular lesions, endothelial cell dysfunction, and RV hypertrophy ([1]; rat monocrotaline model): decreased
- survival ([1]; rat monocrotaline model): improved survival

SMILES: O=C(C(=O)N1CCn2nc(-c3ccc(F)cc3)c(-c3ccncc3)c2N1)c1ccccc1.O=S(=O)(O)O [FR167653]
- progression of PAH ([1]; rat monocrotaline model): decrease the progression of PAH
